{"source": "patent US20220008391A1", "about": "“NOVEL COMPOUNDS FOR CONTROLLING ARTHROPODS” (Bayer Animal Health GmbH, priority 2018, published 2022)", "key": {"[1]": {"experiment": "Evaluation of pharmacokinetics (in vivo), rat", "conditions": "concentration of parent compound A", "method": "Evaluation of Pharmacokinetics (In Vivo) To evaluate the pharmacokinetics of test substances in vivo, these test substances are dissolved in appropriate formulation vehicles (ethanol, dimethyl sulfoxide, PEG400, glycerol formal etc.), or mixtures thereof. The test substances are then administered to rats or dogs intravenously, orally or subcutaneously. The intravenous application is performed as bolus. Administered doses range usually between 0.1 to 5 mg/kg, however, doses for subcutaneous and oral administration can exceed this range up to doses of 30 mg/kg. Blood samples are retrieved via a catheter, exsanguination or venous puncture in vials containing appropriate anticoagulants, such as lithium heparinate or potassium EDTA. Plasma is generated from the blood via centrifugation. Blood samples are taken over an appropriate time interval, usually lasting up to 144h after administration. If necessary, samples from later time points can also be taken. If possible, time points are chosen so that the initial absorption phase, the maximum plasma concentration (Cmax), and exposure within a certain time interval (AUC(0-t)) are described. Furthermore, it is possible to also retrieve organ-, tissue- and urine samples. The quantitative measurement of the test substances in the samples is performed using calibration curves in the respective matrices. The protein content of the samples is precipitated using acetonitrile or methanol. Thereafter, the samples are separated using HPLC in combination with reversed phase chromatography columns. The HPLC system is coupled to a triple quadrupole mass spectrometer via an electrospray interface. The evaluation of the plasma concentration/time profiles are afterwards evaluated using a validated pharmacokinetics evaluation program. […] Relative bioavailability (Frel) was used to describe the exposure of parent after prodrug administration compared to the exposure of parent after direct administration of compound A which was normalised to 100%."}, "[2]": {"experiment": "Evaluation of pharmacokinetics (in vivo), dog", "conditions": "concentration of parent compound A", "method": "Evaluation of Pharmacokinetics (In Vivo) To evaluate the pharmacokinetics of test substances in vivo, these test substances are dissolved in appropriate formulation vehicles (ethanol, dimethyl sulfoxide, PEG400, glycerol formal etc.), or mixtures thereof. The test substances are then administered to rats or dogs intravenously, orally or subcutaneously. The intravenous application is performed as bolus. Administered doses range usually between 0.1 to 5 mg/kg, however, doses for subcutaneous and oral administration can exceed this range up to doses of 30 mg/kg. Blood samples are retrieved via a catheter, exsanguination or venous puncture in vials containing appropriate anticoagulants, such as lithium heparinate or potassium EDTA. Plasma is generated from the blood via centrifugation. Blood samples are taken over an appropriate time interval, usually lasting up to 144h after administration. If necessary, samples from later time points can also be taken. […] The quantitative measurement of the test substances in the samples is performed using calibration curves in the respective matrices. […] The evaluation of the plasma concentration/time profiles are afterwards evaluated using a validated pharmacokinetics evaluation program. […]"}, "[3]": {"system": "Ctenocephalides felis", "experiment": "Antiparasitic activity after administration to rats, fleas", "type": "in vivo", "conditions": "Ctenocephalides felis, ip, 10 mg/kg, CF A", "method": "(§1) Measurement of the Antiparasitic Activity after Administration of a Prodrug to Rats Compounds were dissolved in the appropriate volume of glycerol formal (p.a.) just before application to the animals (dose volume was adjusted to 0.03 mL/kg bodyweight). 5 rats per group were either injected intraperitoneally or subcutaneously. Rats were infested with 30 Dermacentor variabilis nymphs on study days −2, 7, 14, 21, 28, 35 and 30 adult Ctenocephalides fleas on study days −1, 8, 15, 22, 29, 36. […] Percent efficacy was calculated as arithmetic mean parasite numbers as life attached tick numbers and live flea numbers of the respective study group in comparison to parasite counts on a placebo-treated control group. Infestation of groups with less than 75% efficacy on two consecutive counting occasions will terminated for the respective parasite."}, "[4]": {"system": "Dermacentor variabilis", "experiment": "Antiparasitic activity after administration to rats, tick nymphs", "type": "in vivo", "conditions": "Dermacentor variabilis, ip, 10 mg/kg, DV N", "method": "as §1"}, "[5]": {"system": "Ctenocephalides felis", "experiment": "Antiparasitic activity after administration to dogs, fleas", "type": "in vivo", "conditions": "iv, 2 × 5 mg/kg, CF", "method": "(§2) Measurement of the Antiparasitic Activity after Administration of a Prodrug to Dogs\n(§3) Compounds were dissolved in the appropriate volume of glycerol formal (p.a.) just before application to the animals (dose volume was adjusted to 0.1 ml/kg bodyweight). Dogs were injected intravenously respective subcutaneously (see table 8 for details).\n(§4) Dogs were infested with ectoparasites according to table on study 1 day prior to counting for fleas, 2 days prior to counting for RS, IR, DV ticks and 3 days prior to counting for AA ticks. For this purpose, dogs were placed in an individually labeled box with grid windows. The ticks were released onto the back of the dogs and were allowed to disperse and move into the hair without disturbance. The dog remained in the box for approximately 120 minutes with the lid closed and the light switched off in the room. For flea infestations, flea containers were opened in the animal's cage and fleas were applied on the dog's back between the shoulders.\n(§5) Tick counts including removal of I. ricinus, R. sanguineus and D. variabilis were conducted 48(±4) hours after the infestation. Tick counts including removal of A. americanum were conducted 72(±4) hours after the infestation. Flea counts were conducted 24(±4) hours after the infestation.\n(§6) On each parasite assessment day percent efficacy was calculated as arithmetic mean parasite numbers as life attached and live free tick numbers and live flea numbers of the respective study group in comparison to parasite counts on a placebo non-treated control group."}, "[6]": {"system": "Dermacentor variabilis", "experiment": "Antiparasitic activity after administration to dogs, D. variabilis ticks", "type": "in vivo", "conditions": "DV", "method": "as §2, §3, §4, §5, §6"}, "[7]": {"system": "Ixodes ricinus", "experiment": "Antiparasitic activity after administration to dogs, I. ricinus ticks", "type": "in vivo", "conditions": "IR", "method": "as §2, §3, §4, §5, §6"}, "[8]": {"system": "Rhipicephalus sanguineus", "experiment": "Antiparasitic activity after administration to dogs, R. sanguineus ticks", "type": "in vivo", "conditions": "RS", "method": "as §2, §3, §4, §5, §6"}, "[9]": {"system": "Amblyomma americanum", "experiment": "Antiparasitic activity after administration to dogs, A. americanum ticks", "type": "in vivo", "conditions": "AA", "method": "as §2, §3, §4, §5, §6"}, "[10]": {"conditions": "iv bolus of the named substance"}, "[11]": {"conditions": "sc administration of the named substance"}, "[12]": {"conditions": "48 h, study day 2, read-out: Efficacy SD2"}, "[13]": {"conditions": "216 h, study day 9, read-out: Efficacy SD9"}, "[14]": {"conditions": "384 h, study day 16, read-out: Efficacy SD16"}, "[15]": {"conditions": "iv, 2 × 5 mg/kg, study 1, month 1"}, "[16]": {"conditions": "iv, 2 × 5 mg/kg, study 1, month 2"}, "[17]": {"conditions": "iv, 2 × 5 mg/kg, study 1, month 3"}, "[18]": {"conditions": "iv, 2 × 5 mg/kg, study 1, month 4"}, "[19]": {"conditions": "iv, 2 × 5 mg/kg, study 1, month 5"}, "[20]": {"conditions": "iv, 2 × 5 mg/kg, study 1, month 6"}}, "note": "Read-outs that look alike come from different tables or passages of the source.", "data": [{"smiles": "N#CC1(NC(=O)c2cc(-c3cnn(-c4c(Cl)cc(C(F)(C(F)(F)F)C(F)(F)F)cc4OC(F)(F)F)c3)ccc2Cl)CC1", "note": "[Parent Compound A, 2-Chlor-5-{1-[2-chlor-4-(1,1,1,2,3,3,3-heptafluorpropan-2-yl)-6-(trifluormethoxy)phenyl]-1H-pyrazol-4-yl}-N-(1-cyanocyclopropyl)benzamide]", "values": [{"measurement": "AUC(0-144 h)norm of parent compound A", "setting": "[1]; [10]", "result": 11, "unit": "kg·h/L"}, {"measurement": "AUC(0-24)norm of parent compound A", "setting": "[1]; po, 20 mg/kg", "result": 0.37, "unit": "kg·h/L"}, {"measurement": "AUC(0-144 h)norm of parent compound A", "setting": "[1]; [11]", "result": 1.7, "unit": "kg·h/L"}, {"measurement": "AUC(0-72 h)norm of parent compound A", "setting": "[2]; [10]", "result": 6.0, "unit": "kg·h/L"}, {"measurement": "AUC(0-384 h)norm of parent compound A", "setting": "[2]; [11]", "result": 1.0, "unit": "kg·h/L"}, {"measurement": "pest or weed control at 10 mg/kg", "setting": "[3]; [12]", "result": 84, "unit": "%"}, {"measurement": "pest or weed control at 10 mg/kg", "setting": "[3]; [13]", "result": 68, "unit": "%"}, {"measurement": "pest or weed control at 10 mg/kg", "setting": "[3]; [14]", "result": 71, "unit": "%"}, {"measurement": "inhibition in vivo at 10 mg/kg", "setting": "[4]; [12]", "result": 96, "unit": "%"}, {"measurement": "inhibition in vivo at 10 mg/kg", "setting": "[4]; [13]", "result": 87, "unit": "%"}, {"measurement": "inhibition in vivo at 10 mg/kg", "setting": "[4]; [14]", "result": 83, "unit": "%"}, {"measurement": "inhibition in vivo at 10 mg/kg", "setting": "[4]; 552 h, study day 23, read-out: Efficacy SD23", "result": 93, "unit": "%"}, {"measurement": "inhibition in vivo at 10 mg/kg", "setting": "[4]; 720 h, study day 30, read-out: Efficacy SD30", "result": 53, "unit": "%"}, {"measurement": "inhibition in vivo at 10 mg/kg", "setting": "[4]; 888 h, study day 37, read-out: Efficacy SD37", "result": 32, "unit": "%"}, {"measurement": "% Efficacy in study month 1", "setting": "[5]; study 1, month 1", "result": 100, "unit": "%"}, {"measurement": "% Efficacy in study month 2", "setting": "[5]; study 1, month 2", "result": 100, "unit": "%"}, {"measurement": "% Efficacy in study month 3", "setting": "[5]; study 1, month 3", "result": 100, "unit": "%"}, {"measurement": "% Efficacy in study month 4", "setting": "[5]; study 1, month 4", "result": 100, "unit": "%"}, {"measurement": "% Efficacy in study month 5", "setting": "[5]; study 1, month 5", "result": 100, "unit": "%"}, {"measurement": "% Efficacy in study month 6", "setting": "[5]; study 1, month 6", "result": 100, "unit": "%"}, {"measurement": "% Efficacy in study month 1", "setting": "[6]; [15]", "result": 98, "unit": "%"}, {"measurement": "% Efficacy in study month 2", "setting": "[6]; [16]", "result": 99, "unit": "%"}, {"measurement": "% Efficacy in study month 3", "setting": "[6]; [17]", "result": 100, "unit": "%"}, {"measurement": "% Efficacy in study month 4", "setting": "[6]; [18]", "result": 95, "unit": "%"}, {"measurement": "% Efficacy in study month 5", "setting": "[6]; [19]", "result": 98, "unit": "%"}, {"measurement": "% Efficacy in study month 6", "setting": "[6]; [20]", "result": 84, "unit": "%"}, {"measurement": "% Efficacy in study month 6", "setting": "[6]; sc, 5 mg/kg, study 3, month 6", "result": 19, "unit": "%"}, {"measurement": "% Efficacy in study month 1", "setting": "[7]; [15]", "result": 100, "unit": "%"}, {"measurement": "% Efficacy in study month 2", "setting": "[7]; [16]", "result": 100, "unit": "%"}, {"measurement": "% Efficacy in study month 3", "setting": "[7]; [17]", "result": 100, "unit": "%"}, {"measurement": "% Efficacy in study month 4", "setting": "[7]; [18]", "result": 100, "unit": "%"}, {"measurement": "% Efficacy in study month 5", "setting": "[7]; [19]", "result": 98, "unit": "%"}, {"measurement": "% Efficacy in study month 6", "setting": "[7]; [20]", "result": 98, "unit": "%"}, {"measurement": "% Efficacy in study month 6", "setting": "[7]; sc, 5 mg/kg, study 3, month 6", "result": 3, "unit": "%"}, {"measurement": "% Efficacy in study month 1", "setting": "[8]; [15]", "result": 100, "unit": "%"}, {"measurement": "% Efficacy in study month 2", "setting": "[8]; [16]", "result": 100, "unit": "%"}, {"measurement": "% Efficacy in study month 3", "setting": "[8]; [17]", "result": 100, "unit": "%"}, {"measurement": "% Efficacy in study month 4", "setting": "[8]; [18]", "result": 100, "unit": "%"}, {"measurement": "% Efficacy in study month 5", "setting": "[8]; [19]", "result": 100, "unit": "%"}, {"measurement": "% Efficacy in study month 6", "setting": "[8]; [20]", "result": 99, "unit": "%"}, {"measurement": "% Efficacy in study month 6", "setting": "[8]; sc, 5 mg/kg, study 3, month 6", "result": 50, "unit": "%"}, {"measurement": "% Efficacy in study month 1", "setting": "[9]; iv, 2 × 5 mg/kg, study 2, month 1", "result": 100, "unit": "%"}, {"measurement": "% Efficacy in study month 2", "setting": "[9]; iv, 2 × 5 mg/kg, study 2, month 2", "result": 99, "unit": "%"}, {"measurement": "% Efficacy in study month 3", "setting": "[9]; iv, 2 × 5 mg/kg, study 2, month 3", "result": 99, "unit": "%"}, {"measurement": "% Efficacy in study month 4", "setting": "[9]; iv, 2 × 5 mg/kg, study 2, month 4", "result": 99, "unit": "%"}, {"measurement": "% Efficacy in study month 5", "setting": "[9]; iv, 2 × 5 mg/kg, study 2, month 5", "result": 95, "unit": "%"}, {"measurement": "% Efficacy in study month 6", "setting": "[9]; iv, 2 × 5 mg/kg, study 2, month 6", "result": 98, "unit": "%"}, {"measurement": "% Efficacy in study month 6", "setting": "[9]; sc, 5 mg/kg, study 3, month 6", "result": 90, "unit": "%"}]}]}
